Data published in ChEMBL document CHEMBL1201862, “PubChem BioAssay data set” (2004).
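Compound exposure: 48 hours, 5 concentrations, 96-well plates. Abbreviation: GI50, concentration required for 50% inhibition of growth.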 Activity calls are given as the source filed them. Cut-off read from the data, not from the text of the source: active = GI50 up to about 1.1 µM and inactive = higher.

Key:
Test in all cases: inhibition of tumour cell growth, NCI panel, 48 h
A498 = tested on: A498
ACHN = tested on: ACHN
CCRF-CEM = tested on: CCRF-CEM
COLO 205 = tested on: COLO 205
HT-29 = tested on: HT-29
LOX IMVI = tested on: LOX IMVI
M14 = tested on: M14
NCI-H23 = tested on: NCI-H23
NCI/ADR-RES = tested on: NCI/ADR-RES
OVCAR-8 = tested on: OVCAR-8
RXF 393 = tested on: RXF 393
SK-MEL-2 = tested on: SK-MEL-2
SK-MEL-5 = tested on: SK-MEL-5
TK-10 = tested on: TK-10
UACC-257 = tested on: UACC-257
UACC-62 = tested on: UACC-62
HL-60 = tested on: HL-60
K562 = tested on: K562
SW-620 = tested on: SW-620
SF-539 = tested on: SF-539

Measured: GI50

CCOC(=O)c1sc2nc(SC)nc3c2c1NCN3C
inactive: A498 15.2 µM | ACHN 18.7 µM | CCRF-CEM > 100 µM | COLO 205 > 100 µM | HT-29 > 100 µM | LOX IMVI 36 µM | M14 76.9 µM | NCI-H23 22 µM | NCI/ADR-RES 19.6 µM | OVCAR-8 10.7 µM | RXF 393 13.2 µM | SK-MEL-2 86.1 µM | SK-MEL-5 51.5 µM | TK-10 25 µM | UACC-257 > 100 µM | UACC-62 42.7 µM

COc1ccc2c(c1)CC[C@@H]1[C@@H]2CC[C@]2(C)C(=O)/C(=C/c3ccc(O)c(OC)c3)C[C@@H]12
inactive: A498 > 100 µM | ACHN > 100 µM | CCRF-CEM 66.2 µM | COLO 205 > 100 µM | HL-60 47.8 µM | HT-29 51.8 µM | K562 50.5 µM | LOX IMVI 36.9 µM | M14 35.6 µM | NCI-H23 77.1 µM | NCI/ADR-RES 44.2 µM | OVCAR-8 91.8 µM | RXF 393 41.5 µM | SK-MEL-2 69.2 µM | SK-MEL-5 33.9 µM | SW-620 58.2 µM | TK-10 43.1 µM | UACC-257 57.8 µM | UACC-62 68.5 µM

CCCCCCCCC/C=C1\CC(CO)(COC(=O)c2ccccc2)OC1=O (stereo not given)
inactive: A498 26 µM | ACHN 29.8 µM | CCRF-CEM 16.9 µM | COLO 205 16.6 µM | HT-29 19.1 µM | K562 27.9 µM | M14 17.8 µM | NCI-H23 19.4 µM | NCI/ADR-RES 22.6 µM | RXF 393 21.1 µM | SK-MEL-2 43.5 µM | SK-MEL-5 12.5 µM | SW-620 19.1 µM | TK-10 18.6 µM | UACC-257 26.5 µM | UACC-62 25.4 µM

C=CCN1C(=O)/C(=C/c2ccco2)N=C1SC1OC(COC(C)=O)C(OC(C)=O)C(OC(C)=O)C1OC(C)=O (stereo not given)
inactive: A498 > 100 µM | ACHN > 100 µM | COLO 205 > 100 µM | HL-60 13.2 µM | K562 39.8 µM | LOX IMVI > 100 µM | NCI-H23 > 100 µM | NCI/ADR-RES > 100 µM | OVCAR-8 > 100 µM | RXF 393 44 µM | SF-539 > 100 µM | SK-MEL-2 > 100 µM | SK-MEL-5 > 100 µM | SW-620 > 100 µM | TK-10 > 100 µM | UACC-257 > 100 µM | UACC-62 83.9 µM

O=C(c1ccccc1O)c1cc(-c2ncc3c(=O)c4ccccc4oc3n2)c(-c2ccccc2O)[nH]c1=O
inactive: A498 21.3 µM | CCRF-CEM 26 µM | COLO 205 31.9 µM | HL-60 24.9 µM | HT-29 28.2 µM | K562 19.7 µM | LOX IMVI 18.6 µM | NCI-H23 19.7 µM | NCI/ADR-RES 31.7 µM | OVCAR-8 30.7 µM | RXF 393 23.4 µM | SF-539 1.47 µM | SK-MEL-2 22.1 µM | SK-MEL-5 12 µM | SW-620 19.2 µM | UACC-257 18.9 µM | UACC-62 22.9 µM

O=NN(CCF)C(=O)NC1CC2CCC1C2 (stereo not given)
inactive: A498 > 100 µM | CCRF-CEM 38.3 µM | COLO 205 > 100 µM | HL-60 38.7 µM | HT-29 > 100 µM | K562 > 53 µM | LOX IMVI 84.7 µM | NCI-H23 > 100 µM | NCI/ADR-RES > 100 µM | OVCAR-8 > 100 µM | RXF 393 > 100 µM | SF-539 > 100 µM | SK-MEL-2 > 100 µM | SK-MEL-5 > 100 µM | SW-620 > 100 µM | UACC-257 > 100 µM | UACC-62 86.9 µM

COC(=O)C1CC2CC1C1C2SC(F)(F)C1(F)F (stereo not given)
inactive: A498 > 100 µM | ACHN > 100 µM | COLO 205 > 100 µM | LOX IMVI > 100 µM | M14 > 100 µM | NCI/ADR-RES > 100 µM | OVCAR-8 > 100 µM | RXF 393 > 100 µM | SF-539 > 100 µM | SK-MEL-2 > 100 µM | SK-MEL-5 > 100 µM | SW-620 > 100 µM | TK-10 > 100 µM | UACC-257 > 100 µM | UACC-62 > 100 µM

Clc1ccc(Cc2nc3cc(Cl)c(Cl)cc3n2CC2CCCN3CCCCC23)cc1 (stereo not given)
inactive: A498 14.4 µM | ACHN 10.1 µM | COLO 205 10.3 µM | HL-60 5.55 µM | HT-29 3.33 µM | K562 7.41 µM | LOX IMVI 5.6 µM | M14 2.65 µM | NCI/ADR-RES 12.5 µM | OVCAR-8 12.8 µM | RXF 393 13.8 µM | SF-539 10.4 µM | SK-MEL-2 16 µM | SK-MEL-5 11.3 µM | SW-620 13.6 µM | TK-10 14.4 µM | UACC-257 3.81 µM | UACC-62 7.8 µM
